Laboratory results: PMC7673538 (PLoS Biology, 2020)
Where two headings read alike, the source gives them in different places.

Columns and labels:
in vitro [1] = details: human
EV-A71 = assay: microbe, parasite or virus in culture; format: cell-based, enterovirus A71; details: Enterovirus A
in vitro [2] = details: human; remark: listed apart in the source
in vitro [3] = details: monkey
PV-1 = assay: microbe, parasite or virus in culture; format: cell-based, poliovirus 1; details: Enterovirus C, HeLa R19, read-out: EC50 PV-1
CV-A24 = assay: microbe, parasite or virus in culture; format: cell-based, coxsackievirus A24; details: Enterovirus C, CVA24, HeLa R19, read-out: EC50 CV-A24
HRV-B14 = assay: microbe, parasite or virus in culture; format: cell-based, human rhinovirus; details: Human rhinovirus sp.
CV-B3 [4] = assay: microbe, parasite or virus in culture; format: cell-based, coxsackievirus B3; details: Enterovirus B
CV-B3 [5] = assay: microbe, parasite or virus in culture; format: cell-based, coxsackievirus B3; details: for EC50: Enterovirus B
HRV-A2 = assay: microbe, parasite or virus in culture; format: cell-based, human rhinovirus; details: Human rhinovirus sp., HRVA2, HeLa R19, read-out: EC50 HRV-A2
EV-D68 = assay: microbe, parasite or virus in culture; format: cell-based, enterovirus D68; details: Enterovirus D
CV-B3 [6] = assay: microbe, parasite or virus in culture; format: cell-based, coxsackievirus B3; details: Enterovirus B, CVB3, BGM
[7] = EVA71, HeLa R19, read-out: EC50 EV-A71
[8] = HRVB14, HeLa R19, read-out: EC50 HRV-B14
[9] = CVB3, HAP1, read-out: EC50 Hap1 Average
[10] = CVB3, HAP1, read-out: Exp 2 EC50 Hap1
[11] = CVB3, HeLa R19, read-out: CV-B3 EC50 Average
[12] = CVB3, HeLa R19, read-out: CV-B3 Exp 1 EC50
[13] = CVB3, HeLa R19, read-out: CV-B3 Exp2 EC50
[14] = CVB3, HeLa R19, read-out: EC50 HelaR19 Average
[15] = CVB3, HeLa R19, read-out: Exp 1 EC50 HelaR19
[16] = CVB3, HeLa R19, read-out: Exp 2 EC50 HelaR19
[17] = EVD68, HeLa R19, read-out: EC50 EV-D68
[18] = EVD68, HeLa R19, read-out: EC50 Exp1
[19] = EVD68, HeLa R19, read-out: EC50 Exp2
[20] = CVB3, HAP1, read-out: Exp 1 EC50 Hap1
[21] = HRVB14, HeLa R19, read-out: EC50 Exp1
[22] = HRVB14, HeLa R19, read-out: EC50 Exp2

## O=C(c1ccco1)N(Cc1ccccc1)c1ccc(C(F)(F)F)cc1 [Compound 19i, N-benzyl-N-(4-(trifluoromethyl)phenyl)furan-2-carboxamide]
HeLa R19 cells; human, monkey
  cytotoxicity (in words): cytotoxicity in a similar range as the parental compound 1
In vitro [1]; CC50
  CC50: > 100 µM
In vitro [1]; CC50 Hap1 Average
  CC50: > 100 µM
In vitro [1]; Exp 1 CC50 Hap1
  CC50: > 100 µM
In vitro [1]; Exp 2 CC50 Hap1
  CC50: > 100 µM
EV-A71; [7]
  EC50: > 30 µM
In vitro [2]; CC50 Average
  CC50: > 30 µM
In vitro [2]; CC50 HelaR19 Average
  CC50: 68.5 µM
In vitro [2]; Exp 1 CC50
  CC50: > 30 µM
In vitro [2]; Exp 1 CC50 HelaR19
  CC50: 68 µM
In vitro [2]; Exp2 CC50
  CC50: > 30 µM
In vitro [2]; Exp 2 CC50 HelaR19
  CC50: 69 µM
In vitro [3]; CC50
  CC50: 55.4 ± 0.05 µM
In vitro [3]; CC50 BGM Average
  CC50: 55.4 µM
In vitro [3]; Exp 1 CC50 BGM
  CC50: 55.3 µM
In vitro [3]; Exp 2 CC50 BGM
  CC50: 55.5 µM
PV-1
  EC50: > 30 µM
CV-A24
  EC50: > 30 µM
HRV-B14; [8]
  EC50: > 30 µM
CV-B3 [4]; CVB3, HAP1
  EC50: 1.75 ± 0.29 µM
CV-B3 [4]; [9]
  EC50: 1.74 µM
CV-B3 [4]; [10]
  EC50: 2.03 µM
CV-B3 [5]
  effect of the substitution on antiviral activity against CV-B3 (in words): had little effect
CV-B3 [5]; CVB3, HeLa
  EC50: 2.75 ± 0.25 µM
CV-B3 [5]; [11]
  EC50: 2.45 µM
CV-B3 [5]; [12]
  EC50: 2.35 µM
CV-B3 [5]; [13]
  EC50: 2.55 µM
CV-B3 [5]; [14]
  EC50: 2.78 µM
CV-B3 [5]; [15]
  EC50: 2.52 µM
CV-B3 [5]; [16]
  EC50: 3.03 µM
HRV-A2
  EC50: > 30 µM
EV-D68; [17]
  EC50: 3.35 ± 0.19 µM
EV-D68; [18]
  EC50: 3.16 µM
EV-D68; [19]
  EC50: 3.54 µM
CV-B3 [6]; read-out: EC50 BGM Average
  EC50: 1.71 µM
CV-B3 [6]; read-out: Exp 1 EC50 BGM
  EC50: 1.42 µM
CV-B3 [6]; read-out: Exp 2 EC50 BGM
  EC50: 1.99 µM

## COc1ccc(N(Cc2ccc(F)cc2)C(=O)c2ccc[nH]2)cc1 [Compound 5c, N-(4-fluorobenzyl)-N-(4-methoxyphenyl)-1H-pyrrole-2-carboxamide]
HeLa R19 cells
  cytotoxicity (in words): no cytotoxicity
In vitro [1]; CC50
  CC50: > 100 µM
In vitro [1]; CC50 Hap1 Average
  CC50: > 100 µM
In vitro [1]; Exp 1 CC50 Hap1
  CC50: > 100 µM
In vitro [1]; Exp 2 CC50 Hap1
  CC50: > 100 µM
EV-A71; [7]
  EC50: > 30 µM
In vitro [2]; CC50 Average
  CC50: > 30 µM
In vitro [2]; CC50 HelaR19 Average
  CC50: > 100 µM
In vitro [2]; Exp 1 CC50
  CC50: > 30 µM
In vitro [2]; Exp 1 CC50 HelaR19
  CC50: > 100 µM
In vitro [2]; Exp2 CC50
  CC50: > 30 µM
In vitro [2]; Exp 2 CC50 HelaR19
  CC50: > 100 µM
In vitro [3]; CC50
  CC50: > 100 µM
In vitro [3]; CC50 BGM Average
  CC50: 56 µM
In vitro [3]; Exp 1 CC50 BGM
  CC50: 58 µM
In vitro [3]; Exp 2 CC50 BGM
  CC50: 54 µM
PV-1
  EC50: > 30 µM
CV-A24
  EC50: > 30 µM
HRV-B14; [8]
  EC50: > 30 µM
CV-B3 [4]; [9]
  EC50: 2.52 µM
CV-B3 [4]; [20]
  EC50: 2.05 µM
CV-B3 [4]; [10]
  EC50: 2.99 µM
CV-B3 [5]; CVB3, HeLa
  EC50: 4.82 ± 0.14 µM
CV-B3 [5]; [11]
  EC50: 3.01 µM
CV-B3 [5]; [12]
  EC50: 3.21 µM
CV-B3 [5]; [13]
  EC50: 2.81 µM
CV-B3 [5]; [14]
  EC50: 4.81 µM
CV-B3 [5]; [15]
  EC50: 4.95 µM
CV-B3 [5]; [16]
  EC50: 4.68 µM
HRV-A2
  EC50: > 30 µM
EV-D68; [17]
  EC50: 3.47 ± 0.08 µM
EV-D68; [18]
  EC50: 3.39 µM
EV-D68; [19]
  EC50: 3.54 µM
CV-B3 [6]; read-out: EC50 BGM Average
  EC50: 4.18 µM
CV-B3 [6]; read-out: Exp 1 EC50 BGM
  EC50: 3.86 µM
CV-B3 [6]; read-out: Exp 2 EC50 BGM
  EC50: 4.5 µM

## COc1ccc(N(Cc2ccc(F)cc2)C(=O)c2cccs2)cc1 [Compound 5d, N-(4-Fluorobenzyl)-N-(4-methoxyphenyl)thiophene-2-carboxamide]
HeLa R19 cells; human, monkey
  cytotoxicity (in words): cytotoxicity in a similar range as the parental compound 1
In vitro [1]; CC50 Hap1 Average
  CC50: 53.9 µM
In vitro [1]; Exp 1 CC50 Hap1
  CC50: 53.9 µM
In vitro [1]; Exp 2 CC50 Hap1
  CC50: 54 µM
EV-A71; [7]
  EC50: > 30 µM
In vitro [2]; CC50 Average
  CC50: > 30 µM
In vitro [2]; CC50 HelaR19 Average
  CC50: 53 µM
In vitro [2]; Exp 1 CC50
  CC50: > 30 µM
In vitro [2]; Exp 1 CC50 HelaR19
  CC50: 52 µM
In vitro [2]; Exp2 CC50
  CC50: > 30 µM
In vitro [2]; Exp 2 CC50 HelaR19
  CC50: 54.1 µM
In vitro [3]; CC50
  CC50: 66 ± 1.05 µM
In vitro [3]; CC50 BGM Average
  CC50: 66 µM
In vitro [3]; Exp 1 CC50 BGM
  CC50: 65 µM
In vitro [3]; Exp 2 CC50 BGM
  CC50: 67.1 µM
PV-1
  EC50: > 30 µM
CV-A24
  EC50: > 30 µM
HRV-B14; [21]
  EC50: 9.65 µM
HRV-B14; [22]
  EC50: 8.93 µM
HRV-B14; [8]
  EC50: 9.29 ± 0.36 µM
CV-B3 [4]; [9]
  EC50: 0.25 µM
CV-B3 [4]; [20]
  EC50: 0.17 µM
CV-B3 [5]
  increase of antiviral activity against CV-B3: approximately 4 fold
CV-B3 [5]; CVB3, HeLa R19, read-out: 50% effective concentration [EC50]
  EC50: 0.51 ± 0.05 µM
CV-B3 [5]; [12]
  EC50: 0.47 µM
CV-B3 [5]; [13]
  EC50: 0.55 µM
CV-B3 [5]; [15]
  EC50: 0.52 µM
CV-B3 [5]; [16]
  EC50: 0.31 µM
HRV-A2
  EC50: > 30 µM
EV-D68; [17]
  EC50: 2.82 ± 0.4 µM
EV-D68; [18]
  EC50: 2.42 µM
EV-D68; [19]
  EC50: 3.21 µM
CV-B3 [6]; read-out: EC50 BGM Average
  EC50: 0.63 µM
CV-B3 [6]; read-out: Exp 1 EC50 BGM
  EC50: 0.49 µM
CV-B3 [6]; read-out: Exp 2 EC50 BGM
  EC50: 0.77 µM

## O=C(c1ccco1)N(Cc1ccc(S(F)(F)(F)(F)F)cc1)c1ccccc1 [Compound 19f, N-(4-(Pentafluorosulfaneyl)benzyl)-N-phenylfuran-2-carboxamide]
HeLa R19 cells; human
  CC50: 32.9 ± 2 µM
HeLa R19 cells; human, monkey
  cytotoxicity (in words): cytotoxicity in a similar range as the parental compound 1
In vitro [1]; CC50 Hap1 Average
  CC50: 62.5 µM
In vitro [1]; Exp 1 CC50 Hap1
  CC50: 61 µM
In vitro [1]; Exp 2 CC50 Hap1
  CC50: 64.1 µM
EV-A71; [7]
  EC50: 4.37 ± 0.5 µM
EV-A71; EVA71, HeLa R19, read-out: EC50 Exp1
  EC50: 3.87 µM
EV-A71; EVA71, HeLa R19, read-out: EC50 Exp2
  EC50: 4.87 µM
In vitro [2]; CC50 Average
  CC50: > 30 µM
In vitro [2]; CC50 HelaR19 Average
  CC50: 32 µM
In vitro [2]; Exp 1 CC50
  CC50: > 30 µM
In vitro [2]; Exp 1 CC50 HelaR19
  CC50: 30 µM
In vitro [2]; Exp2 CC50
  CC50: > 30 µM
In vitro [2]; Exp 2 CC50 HelaR19
  CC50: 34 µM
In vitro [3]; CC50
  CC50: 31.9 ± 1.41 µM
In vitro [3]; CC50 BGM Average
  CC50: 31.9 µM
In vitro [3]; Exp 1 CC50 BGM
  CC50: 30.5 µM
In vitro [3]; Exp 2 CC50 BGM
  CC50: 33.3 µM
PV-1
  EC50: > 30 µM
CV-A24
  EC50: > 30 µM
HRV-B14; [21]
  EC50: 4.68 µM
HRV-B14; [22]
  EC50: 5.76 µM
HRV-B14; [8]
  EC50: 5.22 ± 0.54 µM
CV-B3 [4]; [9]
  EC50: 2.1 µM
CV-B3 [4]; [20]
  EC50: 2.3 µM
CV-B3 [4]; [10]
  EC50: 1.9 µM
CV-B3 [5]
  effect of the substitution on antiviral activity against CV-B3 (in words): only marginally affected antiviral activity
CV-B3 [5]; [11]
  EC50: 3.1 µM
CV-B3 [5]; [12]
  EC50: 3.52 µM
CV-B3 [5]; [13]
  EC50: 2.68 µM
CV-B3 [5]; [14]
  EC50: 3.28 µM
CV-B3 [5]; [15]
  EC50: 3.45 µM
CV-B3 [5]; [16]
  EC50: 3.11 µM
HRV-A2
  EC50: > 30 µM
EV-D68; [18]
  EC50: 13.6 µM
EV-D68; [19]
  EC50: 15.3 µM
CV-B3 [6]; read-out: EC50 BGM Average
  EC50: 2.6 µM
CV-B3 [6]; read-out: Exp 1 EC50 BGM
  EC50: 2.22 µM
CV-B3 [6]; read-out: Exp 2 EC50 BGM
  EC50: 2.98 µM
